PubChem BioAssay AID274 (DTP/NCI, 2004)
Inconclusive results and toxic doses are left out. How the source made its calls: active means survival T/C of 150% or more; inactive means T/C below 125% in these data.

Tested on: BDF1 mice, Lewis lung carcinoma iv, survival T/C
Assay: NCI In Vivo Anticancer Drug Screen. Data for tumor model Lewis Lung Carcinoma (intravenous) in B6D2F1 (BDF1) mice
Conditions: endpoint: median survival time, higher = longer survival
Experimental: The antitumor activity of compounds was measured in mice bearing transplantable tumors. Survival or tumor size were measured and the results are expressed as the measurement made in the treated group (T) divided by the measurement made in the vehicle treated control group (C). The tumor model used in this assay is Lewis Lung Carcinoma (intravenous) in B6D2F1 (BDF1) mice

[1] = dose: 25.0 mg/kg/injection, schedule: Q01DX009 (ip), vehicle: saline
[2] = dose: 50.0 mg/kg/injection, schedule: Q01DX009 (ip), vehicle: saline
[3] = dose: 100.0 mg/kg/injection, schedule: Q01DX009 (ip), vehicle: saline
[4] = dose: 25.0 mg/kg/injection, schedule: Q01DX009 (ip), vehicle: Klucel (hydroxypropylcellulose) (HPC)
[5] = dose: 50.0 mg/kg/injection, schedule: Q01DX009 (ip), vehicle: Klucel (hydroxypropylcellulose) (HPC)
[6] = dose: 12.5 mg/kg/injection, schedule: Q01DX009 (ip), vehicle: saline
[7] = dose: 100.0 mg/kg/injection, schedule: Q01DX009 (ip), vehicle: Klucel (hydroxypropylcellulose) (HPC)
[8] = dose: 12.5 mg/kg/injection, schedule: Q01DX009 (ip), vehicle: saline with Tween-80
[9] = dose: 25.0 mg/kg/injection, schedule: Q01DX009 (ip), vehicle: saline with Tween-80
[10] = dose: 50.0 mg/kg/injection, schedule: Q01DX009 (ip), vehicle: saline with Tween-80
[11] = dose: 100.0 mg/kg/injection, schedule: Q01DX009 (ip), vehicle: saline with Tween-80
[12] = dose: 200.0 mg/kg/injection, schedule: Q01DX009 (ip), vehicle: saline with Tween-80
[13] = dose: 6.25 mg/kg/injection, schedule: Q01DX009 (ip), vehicle: saline

Measured: T/C

O=C(N/N=C/c1ccccc1O)c1ccncc1
inactive: dose: 108.0 mg/kg/injection, schedule: Q01DX007 (ip), vehicle: Klucel (hydroxypropylcellulose) (HPC) 95 % of control | dose: 154.4 mg/kg/injection, schedule: Q01DX007 (ip), vehicle: Klucel (hydroxypropylcellulose) (HPC) 99 % of control | dose: 220.5 mg/kg/injection, schedule: Q01DX007 (ip), vehicle: Klucel (hydroxypropylcellulose) (HPC) 89 % of control | dose: 315.0 mg/kg/injection, schedule: Q01DX007 (ip), vehicle: Klucel (hydroxypropylcellulose) (HPC) 89 % of control

O=C1C=CC(=O)O1 (tested in a mixture with another compound)
inactive: [1] 101 % of control | [2] 94 % of control | [3] 103 % of control | dose: 200.0 mg/kg/injection, schedule: Q01DX009 (ip), vehicle: saline 95 % of control

Cc1ncc([N+](=O)[O-])n1CCO
inactive: dose: 18.75 mg/kg/injection, schedule: Q01DX009 (ip), vehicle: Klucel (hydroxypropylcellulose) (HPC) 93 % of control | dose: 37.5 mg/kg/injection, schedule: Q01DX009 (ip), vehicle: Klucel (hydroxypropylcellulose) (HPC) 100 % of control | dose: 75.0 mg/kg/injection, schedule: Q01DX009 (ip), vehicle: Klucel (hydroxypropylcellulose) (HPC) 95 % of control | dose: 150.0 mg/kg/injection, schedule: Q01DX009 (ip), vehicle: Klucel (hydroxypropylcellulose) (HPC) 100 % of control | dose: 300.0 mg/kg/injection, schedule: Q01DX009 (ip), vehicle: Klucel (hydroxypropylcellulose) (HPC) 91 % of control | dose: 600.0 mg/kg/injection, schedule: Q01DX009 (ip), vehicle: Klucel (hydroxypropylcellulose) (HPC) 102 % of control

O=C1C(=O)c2ccccc2C(O)=C1CC=C(Cl)Cl
inactive: dose: 12.5 mg/kg/injection, schedule: Q01DX009 (ip), vehicle: Klucel (hydroxypropylcellulose) (HPC) 104 % of control | [4] 93 % of control | [5] 91 % of control

S=c1c2[nH]cnc2ncn1CCSC1=NC=NC2=NC=NC21 (stereo unspecified)
inactive: [6] 115 % of control | [1] 100 % of control | [2] 96 % of control

Nc1nc2c(ncn2C2OC(CO)C(O)C2N)c(=O)[nH]1 (stereo unspecified)
inactive: dose: 3.0 mg/kg/injection, schedule: Q01DX009 (ip), vehicle: saline with Tween-80 101 % of control | dose: 6.0 mg/kg/injection, schedule: Q01DX009 (ip), vehicle: saline with Tween-80 110 % of control | dose: 12.0 mg/kg/injection, schedule: Q01DX009 (ip), vehicle: saline with Tween-80 108 % of control | dose: 24.0 mg/kg/injection, schedule: Q01DX009 (ip), vehicle: saline with Tween-80 99 % of control

Cc1ccc(S(=O)(=O)NC(=O)C2C(=O)CC3(CCCCC3)CC2=O)cc1
inactive: [5] 105 % of control | [7] 101 % of control

c1nc(N2CC2)c2cnn(C3CCCCO3)c2n1 (stereo unspecified)
inactive: [4] 107 % of control | [5] 100 % of control | [7] 101 % of control

CCCCOCN(COCCCC)C(C)Cc1ccccc1 (stereo unspecified)
inactive: [8] 102 % of control | [9] 96 % of control | [10] 95 % of control | [11] 100 % of control | [12] 101 % of control

O=C(NCCN1CC1)C(=O)NCCN1CC1
inactive: dose: 0.38 mg/kg/injection, schedule: Q01DX009 (ip), vehicle: saline 108 % of control | dose: 0.75 mg/kg/injection, schedule: Q01DX009 (ip), vehicle: saline 110 % of control | dose: 1.5 mg/kg/injection, schedule: Q01DX009 (ip), vehicle: saline 120 % of control | dose: 3.0 mg/kg/injection, schedule: Q01DX009 (ip), vehicle: saline 101 % of control

C=C1C(=O)C2=CC1CCC(=O)C1(C)CCC(OC(C)=O)C(C)(C)C1CC2O (stereo unspecified)
inactive: dose: 3.75 mg/kg/injection, schedule: Q01DX009 (ip), vehicle: Klucel (hydroxypropylcellulose) (HPC) 105 % of control | dose: 7.5 mg/kg/injection, schedule: Q01DX009 (ip), vehicle: Klucel (hydroxypropylcellulose) (HPC) 100 % of control | dose: 15.0 mg/kg/injection, schedule: Q01DX009 (ip), vehicle: Klucel (hydroxypropylcellulose) (HPC) 100 % of control | dose: 30.0 mg/kg/injection, schedule: Q01DX009 (ip), vehicle: Klucel (hydroxypropylcellulose) (HPC) 104 % of control | dose: 60.0 mg/kg/injection, schedule: Q01DX009 (ip), vehicle: Klucel (hydroxypropylcellulose) (HPC) 93 % of control

CC(=O)O[C@H]1C(=O)[C@@]2(C)[C@H]([C@H](OC(=O)c3ccccc3)[C@]3(O)C[C@H](OC(=O)[C@H](O)[C@@H](NC(=O)c4ccccc4)c4ccccc4)C(C)=C1C3(C)C)[C@]1(OC(C)=O)CO[C@@H]1C[C@@H]2O
inactive: dose: 25.9 mg/kg/injection, schedule: Q04DX003 (ip), vehicle: Klucel (hydroxypropylcellulose) (HPC) 93 % of control | dose: 43.2 mg/kg/injection, schedule: Q04DX003 (ip), vehicle: Klucel (hydroxypropylcellulose) (HPC) 86 % of control

C[CH2][Ge]([CH2]C)[CH2]C.C[CH2][Ge]([CH2]C)[CH2]C.C[CH2][Ge]([CH2]C)[O][Ge]([CH2]C)[CH2]C
inactive: dose: 6.25 mg/kg/injection, schedule: Q01DX009 (ip), vehicle: saline with Tween-80 97 % of control | [8] 96 % of control | [9] 103 % of control | [10] 100 % of control

COc1nc(=O)n(C2C=CC(=O)O2)cc1F (stereo unspecified)
inactive: [13] 97 % of control | [6] 102 % of control | [1] 96 % of control | [2] 102 % of control | [3] 97 % of control

CCCCCCCCCCCC(c1ccccc1)[N+](C)(C)C (stereo unspecified)
inactive: dose: 1.0 mg/kg/injection, schedule: Q01DX009 (ip), vehicle: saline 96 % of control | dose: 2.0 mg/kg/injection, schedule: Q01DX009 (ip), vehicle: saline 105 % of control | dose: 4.0 mg/kg/injection, schedule: Q01DX009 (ip), vehicle: saline 101 % of control

CC(C)NC(=O)OCc1c(COC(=O)NC(C)C)c(-c2ccc(Cl)c(Cl)c2)n2c1CCC2
inactive: dose: 1.56 mg/kg/injection, schedule: Q01DX009 (ip), vehicle: distilled water + Tween-80 108 % of control | dose: 3.13 mg/kg/injection, schedule: Q01DX009 (ip), vehicle: distilled water + Tween-80 97 % of control | dose: 6.25 mg/kg/injection, schedule: Q01DX009 (ip), vehicle: distilled water + Tween-80 101 % of control | dose: 12.5 mg/kg/injection, schedule: Q01DX009 (ip), vehicle: distilled water + Tween-80 119 % of control | dose: 50.0 mg/kg/injection, schedule: Q01DX009 (ip), vehicle: distilled water + Tween-80 109 % of control

CC[C@](C)(O)C(=O)O[C@H]1C(=O)O[C@@H]2C[C@H]3C(C)=CC(=O)[C@@H](O)[C@]3(C)[C@H]3[C@@]4(O)OC[C@]32[C@@H]1[C@@H](C)[C@H]4O
inactive: dose: 0.12 mg/kg/injection, schedule: Q01DX009 (ip), vehicle: steriod suspending solution 92 % of control | dose: 0.25 mg/kg/injection, schedule: Q01DX009 (ip), vehicle: steriod suspending solution 106 % of control | dose: 0.5 mg/kg/injection, schedule: Q01DX009 (ip), vehicle: steriod suspending solution 99 % of control

[Cl][Sn]([c]1ccccc1)[c]1ccccc1
inactive: dose: 3.12 mg/kg/injection, schedule: Q01DX009 (ip), vehicle: saline 104 % of control | [13] 97 % of control | [6] 98 % of control

CC(Oc1ccccc1-c1ccccc1)C(=O)N(C)C (stereo unspecified)
inactive: [8] 118 % of control | [9] 95 % of control | [10] 113 % of control | [11] 93 % of control | [12] 113 % of control | dose: 400.0 mg/kg/injection, schedule: Q01DX009 (ip), vehicle: saline with Tween-80 114 % of control

C=CC(C)NC(=S)NNC(=S)NC (stereo unspecified)
inactive: dose: 25.0 mg/kg/injection, schedule: Q01DX009 (ip), vehicle: saline + alcohol 119 % of control | dose: 50.0 mg/kg/injection, schedule: Q01DX009 (ip), vehicle: saline + alcohol 110 % of control | dose: 100.0 mg/kg/injection, schedule: Q01DX009 (ip), vehicle: saline + alcohol 107 % of control | dose: 200.0 mg/kg/injection, schedule: Q01DX009 (ip), vehicle: saline + alcohol 104 % of control | dose: 400.0 mg/kg/injection, schedule: Q01DX009 (ip), vehicle: saline + alcohol 114 % of control

CC(C)[NH-].CC(C)[NH-].O.O.[Cl][Pt+2][Cl]
inactive: dose: 3.13 mg/kg/injection, schedule: Q01DX009 (ip), vehicle: dextrose 100 % of control | dose: 6.25 mg/kg/injection, schedule: Q01DX009 (ip), vehicle: dextrose 102 % of control
